# Species: Rattus norvegicus
# Experiment: Open TG-GATES - Regimen: Single
# Type: toxicity, organism-based, Sprague-Dawley
# Design: regimen Single, gender Male, age 6 weeks
# Details: in vivo, po, route gavage; for KIDNEY_L / KIDNEY_R / KIDNEY_TOTAL: tissue Kidney; for ALP / ALT / BUN / CRE / DBIL / GLC / IP / K / Na / RALB / TBIL / TG / TP / gamma-GTP / PL: tissue Plasma; for LIVER: tissue Liver
# [1] = 10 mg/kg, 3 h, tissue Blood, dose level Middle
# [2] = 10 mg/kg, 3 h, dose level Middle
# [3] = 10 mg/kg, 6 h, dose level Middle
# [4] = 10 mg/kg, 6 h, tissue Blood, dose level Middle
# [5] = 10 mg/kg, 9 h, dose level Middle
# [6] = 10 mg/kg, 9 h, tissue Blood, dose level Middle
# [7] = 10 mg/kg, 24 h, dose level Middle
# [8] = 10 mg/kg, 24 h, tissue Blood, dose level Middle
# [9] = 30 mg/kg, 3 h, tissue Blood, dose level High
# [10] = 30 mg/kg, 6 h, tissue Blood, dose level High
# [11] = 30 mg/kg, 9 h, tissue Blood, dose level High
# [12] = 30 mg/kg, 24 h, dose level High
# [13] = 30 mg/kg, 24 h, tissue Blood, dose level High
compound,measurement,setting,value
CNCCC(Oc1ccc(C(F)(F)F)cc1)c1ccccc1.Cl (centres undefined) [FLUOXETINE HYDROCHLORIDE],Bas,[1],0%
same,Eos,[1],1.2%
same,Ht,[1],41.6%
same,Lym,[1],68.4%
same,MCHC,[1],32.1%
same,Ret,[1],8.7%
same,WBC,[1],85.2 x10_2/uL
same,KIDNEY_L,[2],1 g
same,KIDNEY_R,[2],1 g
same,KIDNEY_TOTAL,[2],2 g
same,ALP,[2],1509 IU/L
same,ALT,[2],36.6 IU/L
same,BUN,[2],13.8 mg/dL
same,CRE,[2],0.4 mg/dL
same,DBIL,[2],0.014 mg/dL
same,GLC,[2],201.4 mg/dL
same,IP,[2],10.3 mg/dL
same,K,[2],5.2 meq/L
same,Na,[2],138.6 meq/L
same,RALB,[2],4.1 g/dL
same,TBIL,[2],0.042 mg/dL
same,TG,[2],128.6 mg/dL
same,TP,[2],5.9 g/dL
same,gamma-GTP,[2],0 IU/L
same,TERMINAL_BW,[3],215.2 g
same,Bas,[4],0%
same,Eos,[4],1%
same,Ht,[4],40.8%
same,Lym,[4],70%
same,MCH,[4],21.9 pg
same,MCHC,[4],32.6%
same,Ret,[4],8.2%
same,WBC,[4],96.4 x10_2/uL
same,KIDNEY_L,[3],0.9 g
same,KIDNEY_R,[3],1 g
same,KIDNEY_TOTAL,[3],1.9 g
same,LIVER,[3],10 g
same,ALP,[3],1142 IU/L
same,ALT,[3],32.8 IU/L
same,BUN,[3],10.8 mg/dL
same,CRE,[3],0.4 mg/dL
same,DBIL,[3],0.008 mg/dL
same,GLC,[3],193.8 mg/dL
same,IP,[3],9.7 mg/dL
same,K,[3],4.9 meq/L
same,Na,[3],137.4 meq/L
same,RALB,[3],3.9 g/dL
same,TBIL,[3],0.038 mg/dL
same,TG,[3],85.8 mg/dL
same,TP,[3],5.4 g/dL
same,gamma-GTP,[3],1 IU/L
same,TERMINAL_BW,[5],214.8 g
same,Bas,[6],0%
same,Eos,[6],1%
same,Ht,[6],40.2%
same,Lym,[6],75.6%
same,MCHC,[6],32.5%
same,Ret,[6],7.8%
same,WBC,[6],95 x10_2/uL
same,KIDNEY_L,[5],1 g
same,KIDNEY_R,[5],1 g
same,KIDNEY_TOTAL,[5],1.9 g
same,LIVER,[5],9.2 g
same,ALP,[5],1045.4 IU/L
same,ALT,[5],28.8 IU/L
same,BUN,[5],10.6 mg/dL
same,CRE,[5],0.4 mg/dL
same,DBIL,[5],0.006 mg/dL
same,GLC,[5],191 mg/dL
same,IP,[5],10.8 mg/dL
same,K,[5],5 meq/L
same,Na,[5],137.9 meq/L
same,PL,[5],135 mg/dL
same,RALB,[5],3.8 g/dL
same,TBIL,[5],0.04 mg/dL
same,TG,[5],41.4 mg/dL
same,TP,[5],5.3 g/dL
same,gamma-GTP,[5],0.6 IU/L
same,TERMINAL_BW,[7],227.3 g
same,Bas,[8],0%
same,Eos,[8],1%
same,Ht,[8],41.2%
same,Lym,[8],76.2%
same,MCHC,[8],32.6%
same,Ret,[8],7.7%
same,WBC,[8],100.4 x10_2/uL
same,KIDNEY_L,[7],1 g
same,KIDNEY_R,[7],1 g
same,KIDNEY_TOTAL,[7],1.9 g
same,LIVER,[7],11 g
same,ALP,[7],1378 IU/L
same,ALT,[7],34.6 IU/L
same,BUN,[7],16.4 mg/dL
same,CRE,[7],0.4 mg/dL
same,DBIL,[7],0.01 mg/dL
same,GLC,[7],192.6 mg/dL
same,IP,[7],7.9 mg/dL
same,K,[7],5.1 meq/L
same,Na,[7],138.1 meq/L
same,RALB,[7],3.9 g/dL
same,TBIL,[7],0.034 mg/dL
same,TG,[7],152.6 mg/dL
same,TP,[7],5.5 g/dL
same,gamma-GTP,[7],1 IU/L
same,TERMINAL_BW,"30 mg/kg, 3 h, dose level High",214.6 g
same,Bas,[9],0%
same,Eos,[9],1.2%
same,Ht,[9],39.9%
same,Lym,[9],67.4%
same,MCHC,[9],32.6%
same,Ret,[9],8.7%
same,WBC,[9],79.4 x10_2/uL
same,KIDNEY_L,"30 mg/kg, 3 h, dose level High",0.9 g
same,KIDNEY_R,"30 mg/kg, 3 h, dose level High",1 g
same,KIDNEY_TOTAL,"30 mg/kg, 3 h, dose level High",1.9 g
same,LIVER,"30 mg/kg, 3 h, dose level High",9.8 g
same,ALP,"30 mg/kg, 3 h, dose level High",1364.6 IU/L
same,ALT,"30 mg/kg, 3 h, dose level High",36.4 IU/L
same,BUN,"30 mg/kg, 3 h, dose level High",10.6 mg/dL
same,CRE,"30 mg/kg, 3 h, dose level High",0.4 mg/dL
same,DBIL,"30 mg/kg, 3 h, dose level High",0.01 mg/dL
same,GLC,"30 mg/kg, 3 h, dose level High",201.4 mg/dL
same,IP,"30 mg/kg, 3 h, dose level High",10.1 mg/dL
same,K,"30 mg/kg, 3 h, dose level High",4.4 meq/L
same,Na,"30 mg/kg, 3 h, dose level High",138.6 meq/L
same,RALB,"30 mg/kg, 3 h, dose level High",4.1 g/dL
same,TBIL,"30 mg/kg, 3 h, dose level High",0.048 mg/dL
same,TG,"30 mg/kg, 3 h, dose level High",77.8 mg/dL
same,TP,"30 mg/kg, 3 h, dose level High",5.7 g/dL
same,gamma-GTP,"30 mg/kg, 3 h, dose level High",0.2 IU/L
same,TERMINAL_BW,"30 mg/kg, 6 h, dose level High",217.1 g
same,Bas,[10],0%
same,Eos,[10],1.2%
same,Ht,[10],42%
same,Lym,[10],73.2%
same,MCHC,[10],32.3%
same,Ret,[10],6.9%
same,WBC,[10],82.6 x10_2/uL
same,KIDNEY_L,"30 mg/kg, 6 h, dose level High",0.9 g
same,KIDNEY_R,"30 mg/kg, 6 h, dose level High",1 g
same,KIDNEY_TOTAL,"30 mg/kg, 6 h, dose level High",1.9 g
same,LIVER,"30 mg/kg, 6 h, dose level High",9.3 g
same,ALP,"30 mg/kg, 6 h, dose level High",1193 IU/L
same,ALT,"30 mg/kg, 6 h, dose level High",31 IU/L
same,BUN,"30 mg/kg, 6 h, dose level High",9.2 mg/dL
same,CRE,"30 mg/kg, 6 h, dose level High",0.4 mg/dL
same,DBIL,"30 mg/kg, 6 h, dose level High",0.01 mg/dL
same,GLC,"30 mg/kg, 6 h, dose level High",198.8 mg/dL
same,IP,"30 mg/kg, 6 h, dose level High",9.9 mg/dL
same,K,"30 mg/kg, 6 h, dose level High",5.2 meq/L
same,Na,"30 mg/kg, 6 h, dose level High",137.7 meq/L
same,PL,"30 mg/kg, 6 h, dose level High",134.4 mg/dL
same,RALB,"30 mg/kg, 6 h, dose level High",3.8 g/dL
same,TBIL,"30 mg/kg, 6 h, dose level High",0.038 mg/dL
same,TG,"30 mg/kg, 6 h, dose level High",47.2 mg/dL
same,TP,"30 mg/kg, 6 h, dose level High",5.4 g/dL
same,gamma-GTP,"30 mg/kg, 6 h, dose level High",1 IU/L
same,TERMINAL_BW,"30 mg/kg, 9 h, dose level High",211.4 g
same,Bas,[11],0%
same,Eos,[11],0.8%
same,Ht,[11],40.9%
same,Lym,[11],77.8%
same,MCHC,[11],32.4%
same,Ret,[11],7.1%
same,WBC,[11],90.6 x10_2/uL
same,KIDNEY_L,"30 mg/kg, 9 h, dose level High",0.9 g
same,KIDNEY_R,"30 mg/kg, 9 h, dose level High",1 g
same,KIDNEY_TOTAL,"30 mg/kg, 9 h, dose level High",1.9 g
same,LIVER,"30 mg/kg, 9 h, dose level High",9 g
same,ALP,"30 mg/kg, 9 h, dose level High",1165 IU/L
same,ALT,"30 mg/kg, 9 h, dose level High",28.8 IU/L
same,BUN,"30 mg/kg, 9 h, dose level High",8.4 mg/dL
same,CRE,"30 mg/kg, 9 h, dose level High",0.4 mg/dL
same,DBIL,"30 mg/kg, 9 h, dose level High",0.01 mg/dL
same,GLC,"30 mg/kg, 9 h, dose level High",202.8 mg/dL
same,IP,"30 mg/kg, 9 h, dose level High",11.1 mg/dL
same,K,"30 mg/kg, 9 h, dose level High",5.1 meq/L
same,Na,"30 mg/kg, 9 h, dose level High",138.2 meq/L
same,PL,"30 mg/kg, 9 h, dose level High",145.2 mg/dL
same,RALB,"30 mg/kg, 9 h, dose level High",3.9 g/dL
same,TBIL,"30 mg/kg, 9 h, dose level High",0.048 mg/dL
same,TG,"30 mg/kg, 9 h, dose level High",53 mg/dL
same,TP,"30 mg/kg, 9 h, dose level High",5.4 g/dL
same,gamma-GTP,"30 mg/kg, 9 h, dose level High",0.2 IU/L
same,TERMINAL_BW,[12],222.3 g
same,Bas,[13],0%
same,Eos,[13],1%
same,Ht,[13],40.1%
same,Lym,[13],75.4%
same,MCHC,[13],32.6%
same,Ret,[13],7.8%
same,WBC,[13],81 x10_2/uL
same,KIDNEY_L,[12],1 g
same,KIDNEY_R,[12],1 g
same,KIDNEY_TOTAL,[12],2 g
same,LIVER,[12],10.5 g
same,ALP,[12],1406.6 IU/L
same,ALT,[12],31 IU/L
same,CRE,[12],0.4 mg/dL
same,DBIL,[12],0.01 mg/dL
same,GLC,[12],200 mg/dL
same,IP,[12],8 mg/dL
same,K,[12],5.2 meq/L
same,Na,[12],138.1 meq/L
same,RALB,[12],4 g/dL
same,TBIL,[12],0.028 mg/dL
same,TG,[12],100.4 mg/dL
same,TP,[12],5.7 g/dL
same,gamma-GTP,[12],1 IU/L

# — ChEMBL document CHEMBL3885861, “Open TG-GATES”
